In US8323656B2, “Antigen determinant of rheumatoid arthritis-specific autoantibody and use thereof” (priority 2007, dated 2012):

Test system: RA-specific antibodies (4 anti-CCP2-positive sera)
Assay: Indirect (inhibition) ELISA: cross-reactivity of analytes with RA-specific antibodies, immobilized CCP2 as capture antigen
Format: binding, human
Parameters: Cross-reactivity of antibodies with the named analyte: concentration or dose not given beside the values
Settings: for Inhibition of antibody binding to the immobilized CCP2: FIG. 1 and 2, analyte at 50 mM, 4 sera, result in words; for Cross-reactivity of antibodies with the named analyte: the analyte itself is named; for Cross-reactivity (%) of RA-specific antibody, modified α-amino acid: alkylation + acetylation: acetylated amino acid methyl ester of the amino acid named; for Cross-reactivity (%) of RA-specific antibody, modified α-amino acid: alkylation + acetylation / Cross-reactivity (%) of RA-specific antibody, modified α-amino acid: acetylation / Cross-reactivity (%) of RA-specific antibody, modified α-amino acid: alkylation: 0 = less than 1%; for Cross-reactivity (%) of RA-specific antibody, modified α-amino acid: acetylation: acetylated derivative of the amino acid named; for Cross-reactivity (%) of RA-specific antibody, modified α-amino acid: alkylation: methyl esterified (Me) derivative of the amino acid named; for Cross-reactivity (%) of RA-specific antibody, α-amino acid: unmodified α-amino acid, 0 = cross-reactivity less than 1%
Excerpt: A complete set of 21 amino acids and their derivatives were used as analytes to determine if any analyte inhibited the action of the detector antibody in binding to the capture antigen. Determination was made by observation at the single AA level through a series of moving windows of different derivatization. Following this procedure ensures that no antigenic elements of the epitope are missed as long as the possible AA derivatives are available. The analysis began in the fluid phase, wherein initially, the detector antibody was incubated with each of the analytes. After overnight incubation at 4° C., 100 μl of analyte preadsorbed detector antibody per well were added into 96-well microplate which immobilized CCP2 on the surface, and was incubated for 1 hour at room temperature with shaking. […] The reaction was stopped by adding 100 μl of 0.5 M H2SO4 per well and the results were estimated at A450 nm.
The concept of indirect ELISA was based upon an inhibition test between an unknown amount of analyte and a known amount of immobilized antigen for a limited number of detector antibody binding-sites. If the contents of detector antibody and immobilized antigen are kept constant, the distribution of detector antibody between immobilized antigen bound detector antibody and analyte bound detector antibody is dependent upon the amount of sample analyte. The mass of immobilized antigen bound detector antibody is inversely proportional to the amount of analyte bound detector antibody.
As described in FIG. 1, Amino Acid Profiles for the Antigenic Determinant, ELISA was carried out with sera from Euro-diagnostica (serum 1) and from three patients (serum 2, 3, and 4) with RA to CCP2 positive at various concentrations of different amino acids. […] The horizontal line at 100% represents the control percent binding of the CCP2 to the antibody.
As described in FIG. 2, Acetylamino Acid Profiles for the Antigenic Determinant, ELISA was carried out with sera from Euro-diagnostica (serum 1) and from three patients (serum 2, 3, and 4) with RA to CCP2 positive at various concentrations of different acetylamino acids. […] The horizontal line at 100% represents the control percent binding of the CCP2 to the antibody.
As described in FIG. 3, Alkylamino Acid Profiles for the Antigenic Determinant, ELISA was carried out with sera from Euro-diagnostica (serum 1) and from three patients (serum 2, 3, and 4) with RA to CCP2 positive at various concentrations of different alkylamino acids. […] The horizontal line at 100% represents the control percent binding of the CCP2 to the antibody.
As described in FIG. 4, Acetylamino Acid Methyl Ester Profiles for the Antigenic Determinant, ELISA was carried out with sera from Euro-diagnostica (serum 1) and from three patients (serum 2, 3, and 4) with RA to CCP2 positive at various concentrations of different acetylamino acid methyl esters. […] The horizontal line at 100% represents the control percent binding of the CCP2 to the antibody.

Row | SMILES | Inhibition of antibody binding to the immobilized CCP2 | Cross-reactivity of antibodies with the named analyte | Cross-reactivity (%) of RA-specific antibody, modified α-amino acid: alkylation + acetylation | Cross-reactivity (%) of RA-specific antibody, modified α-amino acid: acetylation | Cross-reactivity (%) of RA-specific antibody, modified α-amino acid: alkylation | Cross-reactivity (%) of RA-specific antibody, α-amino acid
1 | CC(=O)N[C@@H](CS)C(=O)O [acetyl-Cys] | strong inhibition | 50% |  |  |  | 
2 | COC(=O)[C@H](CCCNC(=N)N)NC(C)=O [acetyl-Arg-Me] |  | 13% |  |  |  | 
3 | N[C@@H](Cc1c[nH]c2ccccc12)C(=O)O [Tryptophan] |  |  | 0% | 0% | ^Me0% | 0%
4 | CC(C)[C@H](N)C(=O)O [Valanine] |  |  | 0% | 0% | ^Me0% | 0%
5 | COC(=O)C(CCCNC(N)=O)NC(C)=O (stereo not shown) [acetyl-Cit-Me] |  | 100% |  |  |  | 
6 | N[C@@H](Cc1c[nH]cn1)C(=O)O [Histidine] |  |  | 0% | 0% | ^Me0% | 0%
7 | N=C(N)NCCC[C@H](N)C(=O)O [Arginine] |  | zero | 13% | 6% | ^Me5% | 0%
8 | CSCC[C@H](N)C(=O)O [Methionine] |  | 0% | 0% | 0% | ^Me0% | 0%
9 | COC(=O)[C@H](CO)NC(C)=O [acetyl-Ser-Me] |  | 0% |  |  |  | 
10 | COC(=O)[C@@H](N)CO [Ser-Me] |  | 0% |  |  |  | 
11 | COC(=O)[C@@H](N)CS [Cys-Me] |  | 48% |  |  |  | 
12 | CCCCOC(=O)[C@@H](N)CCCNC(N)=O [Cit-Be] |  | 124% |  |  |  | 
13 | N[C@@H](Cc1ccc(O)cc1)C(=O)O [Tyrosine] |  |  | 0% | 0% | ^Me0% | 0%
14 | CC[C@H](C)[C@H](N)C(=O)O [Isoleucine] |  |  | 0% | 0% | ^Me0% | 0%
15 | NC(=O)C[C@H](N)C(=O)O [Asparagine] |  |  | 0% | 0% | ^Me0% | 0%
16 | CCCOC(=O)C(N)CCCNC(N)=O (stereo not shown) [Cit-Pe] |  | 115% |  |  |  | 
17 | N[C@@H](CO)C(=O)O [Serine] |  | 0% | 0% | 0% | ^Me0% | 0%
18 | CC(=O)N[C@@H](CO)C(=O)O [acetyl-Ser] |  | 0% |  |  |  | 

Row | SMILES | Inhibition of antibody binding to the immobilized CCP2 | Cross-reactivity of antibodies with the named analyte | Cross-reactivity (%) of RA-specific antibody, modified α-amino acid: alkylation + acetylation | Cross-reactivity (%) of RA-specific antibody, modified α-amino acid: acetylation | Cross-reactivity (%) of RA-specific antibody, modified α-amino acid: alkylation | Cross-reactivity (%) of RA-specific antibody, α-amino acid
19 | CSCCC(NC(C)=O)C(=O)O (stereo not shown) [acetyl-Met] |  | 0% |  |  |  | 
20 | N[C@@H](CCC(=O)O)C(=O)O [Glutamic acid] |  |  | 0% | 0% | ^Me0% | 0%
21 | COC(=O)C(N)CCCNC(N)=O (stereo not shown) [Cit-Me] |  | 81% |  |  |  | 
22 | O=C(O)[C@@H]1CCCN1 [Proline] |  |  | 0% | 0% | ^Me0% | 0%
23 | N[C@@H](Cc1ccccc1)C(=O)O [Phenylalanine] |  |  | 0% | 0% | ^Me0% | 0%
24 | N[C@@H](CC(=O)O)C(=O)O [Aspartic acid] |  |  | 0% | 0% | ^Me0% | 0%
25 | CC(C)C[C@H](N)C(=O)O [Leucine] |  |  | 0% | 0% | ^Me0% | 0%
26 | COC(=O)C(N)CCSC (stereo not shown) [Met-Me] |  | 0% |  |  |  | 
27 | COC(=O)[C@H](CCSC)NC(C)=O [acetyl-Met-Me] |  | 0% |  |  |  | 
28 | COC(=O)[C@H](CS)NC(C)=O [acetyl-Cys-Me] |  | 57% |  |  |  | 
29 | CC(=O)N[C@@H](CCCNC(N)=O)C(=O)O [acetyl-Cit] | strong inhibition | 74% |  |  |  | 
30 | C[C@H](N)C(=O)O [Alanine] |  |  | 0% | 0% | ^Me0% | 0%
31 | C[C@@H](O)[C@H](N)C(=O)O [Threonine] |  |  | 0% | 0% | ^Me0% | 0%
32 | COC(=O)[C@@H](N)CCCN=C(N)N [Arg-Me] |  | 6% |  |  |  | 
33 | N[C@@H](CS)C(=O)O [Cysteine] | limited capability to inhibit | 0% | 57% | 48% | ^Me50% | 0%
34 | CCOC(=O)C(N)CCCNC(N)=O (stereo not shown) [Cit-Ee] |  | 72% |  |  |  | 
35 | CC(=O)N[C@@H](CCCN=C(N)N)C(=O)O [acetyl-Arg] | limited inhibition | 5% |  |  |  | 
